In US8846719B2, “Isoxazolo-pyridine derivatives” (Roche Palo Alto LLC, priority 2007, dated 2014):

Target: human GABA A receptor α5β3γ2 (Homo sapiens (Human), UniProt P18507+P31644)
Assay: [3H]flumazenil competition binding assay, human GABA A α5β3γ2 receptors expressed in HEK293 cells
Conditions: human receptor; displacement of [3H]flumazenil (0.5 nM); means of two determinations; read-out: hKi GABAAa5
Method in brief: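 Competition for [3H]flumazenil binding on membranes of HEK293 cells transiently transfected with human α5β3γ2 receptors, in Krebs-tris buffer pH 7.5.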

Compound	Ki [nM]
Cc1onc(-c2ccccn2)c1COc1ccc(C(=O)NC2CCOCC2)cn1 [Example 272, 6-(5-Methyl-3-pyridin-2-yl-isoxazol-4-ylmethoxy)-N-(tetrahydro-pyran-4-yl)-nicotinamide]	1.1
Cc1onc(-c2ccccn2)c1COc1ccc(C(=O)NC(C)C)cn1 [Example 273, N-Isopropyl-6-(5-methyl-3-pyridin-2-yl-isoxazol-4-ylmethoxy)-nicotinamide]	0.6
Cc1onc(-c2ccccn2)c1COc1ccc(C(=O)NCC(F)(F)F)cn1 [Example 275, 6-(5-Methyl-3-pyridin-2-yl-isoxazol-4-ylmethoxy)-N-(2,2,2-trifluoro-ethyl)-nicotinamide]	1.1
Cc1onc(-c2ccccn2)c1COc1ccc(C(=O)N2CCS(=O)(=O)CC2)cn1 [Example 276, (1,1-Dioxo-1,6-thiomorpholin-4-yl)-[6-(5-methyl-3-pyridin-2-yl-isoxazol-4-ylmethoxy)-pyridin-3-yl]-methanone]	10.1
Cc1onc(-c2ccccn2)c1COc1ccc(C(=O)NCC2CC2)cn1 [Example 277, N-Cyclopropylmethyl-6-(5-methyl-3-pyridin-2-yl-isoxazol-4-ylmethoxy)-nicotinamide]	1.5
Cc1onc(-c2ccccn2)c1COc1ccc(C(=O)NC2CC2)cn1 [Example 278, N-Cyclopropyl-6-(5-methyl-3-pyridin-2-yl-isoxazol-4-ylmethoxy)-nicotinamide]	1.6
CNC(=O)c1ccc(OCc2c(-c3ccccn3)noc2C)nc1 [Example 279, Methyl-6-(5-methyl-3-pyridin-2-yl-isoxazol-4-ylmethoxy)-nicotinamide]	1.3
CCNC(=O)c1ccc(OCc2c(-c3ccccn3)noc2C)nc1 [Example 280, Ethyl-6-(5-methyl-3-pyridin-2-yl-isoxazol-4-ylmethoxy)-nicotinamide]	1.1
Cc1onc(-c2ccccn2)c1COc1ccc(C(=O)NC(C)(C)CO)cn1 [Example 281, (2-Hydroxy-1,1-dimethyl-ethyl)-6-(5-methyl-3-pyridin-2-yl-isoxazol-4-ylmethoxy)-nicotinamide]	4
Cc1onc(-c2ccccn2)c1COc1ccc(C(=O)N2CCSCC2)cn1 [Example 282, [6-(5-Methyl-3-pyridin-2-yl-isoxazol-4-ylmethoxy)-pyridin-3-yl]-thiomorpholin-4-yl-methanone]	6.8
Cc1onc(-c2ccccn2)c1COc1ccc(C(=O)O)cn1 [Example 283, 6-(5-Methyl-3-pyridin-2-yl-isoxazol-4-ylmethoxy)-nicotinic acid]	22.3
Cc1onc(-c2ccccn2)c1COc1ccc(C(=O)NCCO)cn1 [Example 284, (2-Hydroxy-ethyl)-6-(5-methyl-3-pyridin-2-yl-isoxazol-4-ylmethoxy)-nicotinamide]	0.5
COCCNC(=O)c1ccc(OCc2c(-c3ccccn3)noc2C)nc1 [Example 285, (2-Methoxy-ethyl)-6-(5-methyl-3-pyridin-2-yl-isoxazol-4-ylmethoxy)-nicotinamide]	1.1
COC(=O)c1ccc(OCc2c(-c3ccc(F)cn3)noc2C)nc1 [Example 286, 6-[3-(5-Fluoro-pyridin-2-yl)-5-methyl-isoxazol-4-ylmethoxy]-nicotinic acid methyl ester]	2
Cc1onc(-c2ccc(F)cn2)c1COc1ccc(C(=O)O)cn1 [Example 287, 6-[3-(5-Fluoro-pyridin-2-yl)-5-methyl-isoxazol-4-ylmethoxy]-nicotinic acid]	19.2
Cc1onc(-c2ccc(F)cn2)c1COc1ccc(C(=O)NC2CCOCC2)cn1 [Example 288, 6-[3-(5-Fluoro-pyridin-2-yl)-5-methyl-isoxazol-4-ylmethoxy]-(tetrahydro-pyran-4-yl)-nicotinamide]	0.4
Cc1onc(-c2ccc(F)cn2)c1COc1ccc(C(=O)NC2CC2)cn1 [Example 290, Cyclopropyl-6-[3-(5-fluoro-pyridin-2-yl)-5-methyl-isoxazol-4-ylmethoxy]-nicotinamide]	0.6
Cc1onc(-c2ccc(F)cn2)c1COc1ccc(C(=O)NC(C)(C)CO)cn1 [Example 291, 6-[3-(5-Fluoro-pyridin-2-yl)-5-methyl-isoxazol-4-ylmethoxy](2-hydroxy-1,1-dimethyl-ethyl)-nicotinamide]	1.2
Cc1onc(-c2ccc(F)cn2)c1COc1ccc(C(=O)NCC2CC2)cn1 [Example 292, Cyclopropylmethyl-6-[3-(5-fluoro-pyridin-2-yl)-5-methyl-isoxazol-4-ylmethoxy]-nicotinamide]	0.4
Cc1onc(-c2ccc(F)cn2)c1COc1ccc(C(=O)N2CCS(=O)(=O)CC2)cn1 [Example 293, (1,1-Dioxo-1,6-thiomorpholin-4-yl)-{6-[3-(5-fluoro-pyridin-2-yl)-5-methyl-isoxazol-4-ylmethoxy]-pyridin-3-yl}-methanone]	1.2
Cc1onc(-c2ccc(F)cn2)c1COc1ccc(C(=O)NCC(F)(F)F)cn1 [Example 294]	0.3
Cc1onc(-c2ccc(F)cn2)c1COc1ccc(C(=O)NCCO)cn1 [Example 295, 6-[3-(5-Fluoro-pyridin-2-yl)-5-methyl-isoxazol-4-ylmethoxy]-(2-hydroxy-ethyl)-nicotinamide]	0.4
Cc1onc(-c2ccc(F)cn2)c1COc1ccc(C(=O)N2CCOCC2)cn1 [Example 296, {6-[3-(5-Fluoro-pyridin-2-yl)-5-methyl-isoxazol-4-ylmethoxy]-pyridin-3-yl}-morpholin-4-yl-methanone]	4.1
CCNC(=O)c1ccc(OCc2c(-c3ccc(F)cn3)noc2C)nc1 [Example 297, Ethyl-6-[3-(5-fluoro-pyridin-2-yl)-5-methyl-isoxazol-4-ylmethoxy]-nicotinamide]	0.5
CNC(=O)c1ccc(OCc2c(-c3ccc(F)cn3)noc2C)nc1 [Example 298, 6-[3-(5-Fluoro-pyridin-2-yl)-5-methyl-isoxazol-4-ylmethoxy]-methyl-nicotinamide]	0.6
Cc1onc(-c2ccc(F)cn2)c1COc1ccc(C(=O)N[C@@H](C)C(F)(F)F)cn1 [Example 299, 6-[3-(5-Fluoro-pyridin-2-yl)-5-methyl-isoxazol-4-ylmethoxy]-N—((S)-2,2,2-trifluoro-1-methyl-ethyl)-nicotinamide]	0.5
COC(=O)c1ccc(OCc2c(-c3ccc(Cl)cn3)noc2C)nc1 [Example 300, 6-[3-(5-Chloro-pyridin-2-yl)-5-methyl-isoxazol-4-ylmethoxy]-nicotinic acid methyl ester]	1.6
Cc1onc(-c2ccc(Cl)cn2)c1COc1ccc(C(=O)NC2CCOCC2)cn1 [Example 301, 6-[3-(5-Chloro-pyridin-2-yl)-5-methyl-isoxazol-4-ylmethoxy]-(tetrahydro-pyran-4-yl)-nicotinamide]	0.3
Cc1onc(-c2ccc(Cl)cn2)c1COc1ccc(C(=O)NC(C)C)cn1 [Example 302, 6-[3-(5-Chloro-pyridin-2-yl)-5-methyl-isoxazol-4-ylmethoxy]-isopropyl-nicotinamide]	0.3
Cc1onc(-c2ccc(Cl)cn2)c1COc1ccc(C(=O)NC2CC2)cn1 [Example 303, 6-[3-(5-Chloro-pyridin-2-yl)-5-methyl-isoxazol-4-ylmethoxy]-cyclopropyl-nicotinamide]	0.3
